Broadly, the MRT is a mean duration of stay, worked out from the concentration-time curve. A word on the half-life: it is the time in which the quantity being followed falls by half. Read a high half-life as slow loss. A word on the Cmax: it is the peak of the concentration-time curve. As usually defined, the Tmax is the time from dosing to the highest level. In general, AUC(0-inf) refers to the area under the concentration-time curve extrapolated to infinity. What is called bioavailability is dose-corrected exposure relative to a reference, in per cent.

Where only a bound is given, the exact number is not on record here.

Series [1] in a line: PK study in monkeys (intravenous and oral). It is filed as in vivo, cynomolgus monkeys. The protocol: Male cynomolgus monkeys were supplied from Prestasi Fauna Nusantara Ltd. (Jakarta, Indonesia) and were housed at Shin Nippon Biomedical Laboratories, Ltd. The PK study was performed in a cross-over design with 7 days interval between the doses for monkeys aged 3–4 years old. Monkeys were fasted a day before the PK study and feeding was resumed 4 h postdose. Dosing solution of lenvatinib used was the same as that in the other animal PK studies. Lenvatinib was intravenously administered at the dose of 3 mg/kg via cephalic vein. In oral administration, lenvatinib at 3 mg/kg was dosed by using a nasogastric catheter, followed by giving 30 mL of water to flush the remaining dosing solution in the catheter. The number of monkeys at each dose was four. Approximately 0.5 mL of blood samples were serially collected from the femoral vein using a heparinized syringe at pre-dose, and at 5, 15 and 30 min, and 1, 2, 4, 6, 8, 12 and 24 h post-dose. Plasma sample preparation and sample storage were the same as those in the other PK studies.
(§1) PK parameters of lenvatinib were estimated by model independent analysis using a WinNonlin program (Version 4.1, Pharsight Corporation, Mountain View, CA). The time to reach the maximum plasma concentration (Tmax) and the maximum plasma concentration (Cmax) values were obtained directly from the plasma concentration data. Terminal half-life (T1/2) was calculated by ln2/ke, where ke is the slope of the regression line that fits the portion of the terminal phase (at least three time points) in the log-linear concentration–time curve. AUC0–t and AUMC0–t, the area under the concentration–time curves and the area under the first moment curve, from time = zero to time = t, respectively, were calculated using the lenvatinib concentrations in plasma by the linear/log trapezoidal method. AUC0–inf was calculated by AUC0–t + Ct/ke, and AUMC0–inf was AUMC0–t + Ct × t/ke + Ct/(ke)^2, where Ct is the last measurable concentration at time = t. The plasma concentration at time zero for the intravenous dose was extrapolated, while zero was used for the oral doses. Mean residence time (MRT), total plasma clearance (CLtot) and the volume of distribution at steady state (Vdss) were calculated by AUMC0–inf/AUC0–inf, Dose/AUC0–inf and CLtot × MRT, respectively. Oral bioavailability (F) was estimated by comparing dose-normalized AUC0–inf after oral (AUC0–inf.po) and intravenous (AUC0–inf.iv) administration as follows: F (%) = (AUC0–inf.po/AUC0–inf.iv) × 100.

The nature of series [2]: Cross-species PK summary (mice, rats, dogs, monkeys). It is filed as in vivo, and monkeys. As to conditions: for bioavailability: rat, rats. The method, then:
as §1
One of the typical approaches for predicting human PK from animal PK is empirical allometric scaling. As the CLtot of lenvatinib was relatively low and Vdss of lenvatinib was low to medium, thus it is theoretically preferable to correct by fp for both parameters. The CLtot divided by fp (CLtot/fp) or Vdss divided by fp (Vdss/fp) were plotted against body weight (BW) by log–log scale, and a linear regression was performed to estimate a slope and intercept for linear regression. The BW used in the calculation was 0.02, 0.2, 10, 5, and 70 kg for mice, rats, dogs, monkeys, and humans, respectively. CLtot and Vdss of lenvatinib in humans were predicted by using the regression line and the BW of humans. As no PK data of lenvatinib are available for CLtot and Vdss, which can be estimated only from intravenous administration PK study in humans, it is not possible to assess predictability of the allometric scaling for these two parameters of lenvatinib in humans. However, it is possible to predict exposure of lenvatinib after oral administration (AUCoral) in humans from the allometry scaling of hepatic intrinsic clearance (CLint). As lenvatinib is mainly cleared by the liver, AUCoral is estimated by Fa × Fg × Dose/(fp × CLint)[9], where Fa, Fg, fp, and CLint are absorption at the gastrointestinal (GI) tract, metabolic availability at the GI, unbound fraction in plasma, and hepatic intrinsic clearance, respectively. The CLint is thus estimated by Fa × Fg × Dose/(fp × AUCoral) in all the animal species including humans just from PK data from oral administration. The allometric scaling approach was applied for CLint in mice, rats, dogs, and monkeys. The logarithmic plot of CLint and BW was performed for a linear regression and a regression line [log (CLint) = slope × log (BW) + intercept], which was derived by logarithmic transformation of the equation CLint = a × BW^b was obtained. The CLint predicted from the allometric scaling was compared to the observed CLint after oral administration of lenvatinib at 9 mg in humans.

[3] abbreviates: male, cynomolgus monkey, plasma, intravenous 3 mg/kg.
[4] abbreviates: male, cynomolgus monkey, plasma, oral 3 mg/kg.
[5] abbreviates: male, cynomolgus, cynomolgus monkey, plasma, oral 3 mg/kg.

Regarding `COc1cc2nccc(Oc3ccc(NC(=O)NC4CC4)c(Cl)c3)c2cc1C(N)=O` [lenvatinib, Lenvatinib], the “CLint (hepatic intrinsic clearance)” value in series [1] (estimated from oral PK, Fa and Fg assumed unity, BW 5 kg) is listed as 37,063 mL/h. Moreover, the MRT was 3.32 ± 0.15 h in series [1] (setting [3]) and 4.23 ± 0.31 h in series [1] (setting [4]). The half-life in series [1] (setting [3]) was 4.28 ± 0.34 h; in series [1] (setting [5]), 4.07 ± 0.29 h. This compound also displayed a Cmax in series [1] (setting [4]) of 2500 ± 450 ng/mL. In addition, the Tmax in series [1] (male, cynomolgus monkey, plasma, oral 3 mg/kg, median (range)) stood at 2 h. Besides, the AUC(0-inf) was 12900 ± 1060 ng·h/mL in series [1] (male, cynomolgus, cynomolgus monkey, plasma, intravenous 3 mg/kg) and 10300 ± 1510 ng·h/mL in series [1] (setting [5]). For the same compound, the C0 in series [1] (male, cynomolgus, cynomolgus monkey, plasma, intravenous 3 mg/kg, extrapolated) was 5170 ± 949 ng/mL. The clearance in series [1] (male, cynomolgus, cynomolgus monkey, plasma, intravenous 3 mg/kg, read-out: CLtot (converted)) was 3.97 mL/min/kg; in series [2] (mouse, dog, monkey, plasma, the other three species (mice, dogs, monkeys), intravenous 3 mg/kg, read-out: CLtot), 3.97 to 6.13 mL/min/kg. Further, the Vd in series [1] (male, cynomolgus, cynomolgus monkey, plasma, intravenous 3 mg/kg, read-out: Vdss) was 0.794 ± 0.0882 L/kg. Also, the bioavailability in series [1] (male, cynomolgus, cynomolgus monkey, plasma, oral 3 mg/kg vs intravenous 3 mg/kg, read-out: F (oral bioavailability)) was 78.4 ± 5.4%; in series [2] (mouse, dog, monkey, plasma, oral, 3 mg/kg, mice, dogs, monkeys, read-out: average bioavailability in the four species), 70%; in series [2] (mouse, dog, monkey, plasma, po, 3 mg/kg, range over mice, dogs, and monkeys, read-out: oral bioavailability), 64.4 to 78.4%; in series [2] (mouse, dog, monkey, plasma, po, range over mice, dogs, and monkeys, read-out: oral bioavailability) it was 64 to 78%. Besides, in series [2] (calculated from CLtot (iv), blood-to-plasma partition, hepatic blood flow, and bioavailability), the “availability in the intestine” value was more than 0.7.

The values above are taken from article PMC10205807, “Cross-species comparison in nonclinical pharmacokinetics of lenvatinib by a simple HPLC with ultraviolet detection” (Scientific Reports, 2023).
